One data set concerns colorectal cancer cells. Also on record: method as in PMID 25253726. The note with it: cited from earlier work.
Data set [1] concerns HUWE1 substrates, such as MCL1. Also on record: method as in PMID 25253726. To be noted: MCL1 upon DNA damage induction; cited from earlier work.
For a further data set, the target named is T1, UBA1 (E1) / UBE2L3 (E2) (Homo sapiens, UniProt P22314+P68036).
T1 construct: made in house
Description: E1-driven Ub transfer to UBE2L3 (E3-free reaction). It counts as biochemical. To be noted: Supplementary Fig. 1f, g. How it is done:
E3-free multi-turnover ubiquitination reactions to monitor E1 and E2 activities contained 1 μM UBA1, 5 μM UBE2L3, 100 μM Ub, 2 mM ATP and 10 mM MgCl2 in 25 mM HEPES (pH 7.4), and 0.2 mM TCEP. Reactions were incubated at 30 °C for 10 min (or otherwise, as specified) and quenched with 50 mM EDTA, followed by the addition of SDS-loading dye. Single-turnover E2~Ub discharge assays were performed similarly to previous studies. In short, 1 μM UBA1, 5 μM UBE2L3, and 100 μM Ub were pre-incubated with 2 mM ATP and 10 mM MgCl2 in 25 mM HEPES (pH 7.4) at 30 °C for 30 min, diluted 4-fold, and quenched with 50 mM EDTA. Thereafter, 1.2 μM of the UBE2L3~Ub product was incubated with 5 μM HUWE1^HECT at 30 °C for 1 min.

A further data set relates to HEK293T cells. Put plainly: Ub remnant profiling (diGly proteomics). In kind it is cell-based, human. The note with it: 15 μM, 24 h vs DMSO. As for the experimental part:
For total proteomics and Ub remnant profiling (diGly proteomics), HEK293T cells were treated with 15 μM BI8626 (in DMSO) or an equivalent volume of DMSO for 24 h, washed with ice-cold 1 x DPBS, and lysed in 9 M urea, 50 mM Tris (pH 8.0) and 150 mM NaCl, supplemented with protease inhibitor (Roche) and 50 µM PR-619, and processed essentially as described. Briefly, the cells were lysed by sonication, non-solubilized material removed by centrifugation, and the protein concentration was determined with a Pierce BCA Protein Assay Kit. 5 mg was used for further MS processing and four biological replicates per condition.
After reduction with 5 mM DTT and alkylation with 10 mM chloroacetamide, followed by quenching with 5 mM DTT, lysates were digested with 5 ng/μl LysC protease (Wako) at RT for 1 h. Subsequent digestion of peptides with trypsin (Promega) at a 1: 200 enzyme: peptide ratio was performed. Desalted and lyophilized peptides were resuspended in 1.5 ml IAP buffer (50 mM MOPS (pH 7.2), 10 mM Na2HPO4, 50 mM NaCl) and centrifuged to remove insoluble material. […]
Data collection was controlled by Tune v.4.0.4084.22 (Thermo Scientific) and Xcalibur v.2.4 (Thermo Fisher Scientific). Raw data files from quadruplicate samples were analyzed using MaxQuant v.1.6.0.1 (Max Planck Institute of Biochemistry)[56],[57]. […]

The values that follow come from publication PMC12405493, “Selective ubiquitination of drug-like small molecules by the ubiquitin ligase HUWE1” (Nature Communications, 2025).

T1 sequence (P22314 whole entry): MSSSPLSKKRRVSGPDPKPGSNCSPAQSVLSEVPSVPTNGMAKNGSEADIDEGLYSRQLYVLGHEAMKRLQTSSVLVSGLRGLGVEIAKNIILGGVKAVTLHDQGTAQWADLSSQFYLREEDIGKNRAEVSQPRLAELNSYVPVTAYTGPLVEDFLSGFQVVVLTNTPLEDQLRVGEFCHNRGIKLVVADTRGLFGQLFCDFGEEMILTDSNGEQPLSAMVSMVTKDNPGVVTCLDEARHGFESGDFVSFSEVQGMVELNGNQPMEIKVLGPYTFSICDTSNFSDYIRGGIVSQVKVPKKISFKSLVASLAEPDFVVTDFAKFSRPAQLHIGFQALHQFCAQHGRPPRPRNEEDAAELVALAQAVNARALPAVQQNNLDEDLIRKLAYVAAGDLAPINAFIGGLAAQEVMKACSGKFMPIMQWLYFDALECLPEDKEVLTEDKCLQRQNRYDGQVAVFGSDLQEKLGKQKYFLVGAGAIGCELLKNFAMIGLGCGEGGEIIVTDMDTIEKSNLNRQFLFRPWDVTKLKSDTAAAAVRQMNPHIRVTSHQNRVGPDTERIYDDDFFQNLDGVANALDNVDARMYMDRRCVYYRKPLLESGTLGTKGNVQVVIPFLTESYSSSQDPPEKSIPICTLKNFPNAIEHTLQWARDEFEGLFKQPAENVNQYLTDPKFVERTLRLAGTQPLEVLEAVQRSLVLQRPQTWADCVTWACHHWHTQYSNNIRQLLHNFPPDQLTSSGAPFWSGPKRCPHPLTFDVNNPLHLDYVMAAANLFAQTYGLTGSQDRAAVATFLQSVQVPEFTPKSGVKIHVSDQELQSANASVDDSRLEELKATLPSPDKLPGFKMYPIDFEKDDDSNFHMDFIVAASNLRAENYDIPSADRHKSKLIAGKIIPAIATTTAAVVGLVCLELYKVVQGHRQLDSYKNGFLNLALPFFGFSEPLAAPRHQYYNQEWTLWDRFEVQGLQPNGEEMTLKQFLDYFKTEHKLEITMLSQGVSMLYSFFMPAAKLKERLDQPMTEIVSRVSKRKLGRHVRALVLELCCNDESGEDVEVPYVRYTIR
T1 sequence (P68036 whole entry): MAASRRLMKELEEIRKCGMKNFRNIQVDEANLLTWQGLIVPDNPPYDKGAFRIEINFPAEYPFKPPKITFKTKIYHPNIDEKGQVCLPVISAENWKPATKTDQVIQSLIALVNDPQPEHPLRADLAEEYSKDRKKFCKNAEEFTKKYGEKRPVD

For the compound `Cc1c(C(=O)Nc2ccc(CN)cc2)ncnc1N1CCC(C#N)(c2ccccc2)CC1` [BI8622], in the data set on colorectal cancer cells, the Cytotoxic effects entry is listed as “selective cytotoxic effects”. Moreover, the “Stabilization of HUWE1 substrates” value in data set [1] is on record as “stabilize individual HUWE1 substrates under certain conditions, such as MCL1 upon DNA damage induction”. The “Ub transfer from the E1 to the E2” value at UBA1 (E1) / UBE2L3 (E2) was “nor do they perturb the preceding Ub transfer from the E1 to the E2”.

Regarding `NCc1cccc(CNc2ncnc3c(N4CCN(Cc5ccccc5)CC4)ncnc23)c1` [BI8626], the Cytotoxic effects entry with colorectal cancer cells is reported as “selective cytotoxic effects”. Moreover, the “Stabilization of HUWE1 substrates” value in data set [1] is listed as “stabilize individual HUWE1 substrates under certain conditions, such as MCL1 upon DNA damage induction”. For the same compound, the “Protein ubiquitination changes (diGly proteomics)” value in the data set on HEK293T cells was “predominantly reductions in protein ubiquitination”. In addition, the “Ub transfer from the E1 to the E2” value at UBA1 (E1) / UBE2L3 (E2) is “nor do they perturb the preceding Ub transfer from the E1 to the E2”.
